According to patent US20250235460A1, “COMBINATION THERAPY USING GLUCOSE-DEPENDENT INSULINOTROPIC POLYPEPTIDE RECEPTOR ANTAGONIST COMPOUNDS AND GLP-1 RECEPTOR AGONIST COMPOUNDS” (Pfizer Inc., priority 2024, published 2025):

Target: human GLP-1R (Homo sapiens, UniProt P43220, G168S)
Assay: CHO GLP-1R Clone H6 cAMP HTRF agonist assay (Assay 1, high receptor density)
Type: cell-based
Conditions: for EC50: CHO GLP-1R clone H6, cAMP HTRF, geometric mean; for Emax: CHO GLP-1R clone H6, arithmetic mean, relative to saturating GLP-1 (1 μM), read-out: Assay 1 Emax (%)
Text: In Table 5 and Table 6, assay data are presented to two (2) significant figures as the geometric mean (EC50s) and arithmetic mean (Emax) based on the number of replicates listed (Number). A blank cell means there was no data for that Example or the Emax was not calculated.

human GLP-1R, sequence (P43220 24-463 G168S): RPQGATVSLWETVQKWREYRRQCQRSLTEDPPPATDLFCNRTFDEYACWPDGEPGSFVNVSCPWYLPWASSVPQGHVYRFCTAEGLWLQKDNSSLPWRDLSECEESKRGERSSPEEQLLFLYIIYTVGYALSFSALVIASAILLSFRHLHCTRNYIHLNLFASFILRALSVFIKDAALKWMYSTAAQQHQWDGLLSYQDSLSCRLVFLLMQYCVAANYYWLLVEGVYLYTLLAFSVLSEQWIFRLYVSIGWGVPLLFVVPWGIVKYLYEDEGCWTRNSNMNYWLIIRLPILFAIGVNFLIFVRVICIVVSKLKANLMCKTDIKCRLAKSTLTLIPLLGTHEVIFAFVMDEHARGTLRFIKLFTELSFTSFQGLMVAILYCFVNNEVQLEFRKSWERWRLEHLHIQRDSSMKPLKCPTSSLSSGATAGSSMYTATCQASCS

SMILES | EC50 | Emax
COCCn1c(CN2CCC(c3cccc(OCc4ccc(Cl)cc4F)n3)CC2)nc2ccc(C(=O)O)nc21 [Compound 213B, 2-[(4-{6-[(4-chloro-2-fluorobenzyl)oxy]pyridin-2-yl}piperidin-1-yl)methyl]-3-(2-methoxyethyl)-3H-imidazo[4,5-b]pyridine-5-carboxylic acid] | 390 nM | 82%
N#Cc1ccc(COc2cccc(C3CCN(Cc4nc5ccc(C(=O)O)nc5n4Cc4ncco4)CC3)n2)c(F)c1 [Compound 214B, 2-[(4-{6-[(4-cyano-2-fluorobenzyl)oxy]pyridin-2-yl}piperidin-1-yl)methyl]-3-(1,3-oxazol-2-ylmethyl)-3H-imidazo[4,5-b]pyridine-5-carboxylic acid] |  | 71%
Cn1c(CN2CCC(c3cccc(OCc4ccc(C(F)(F)F)cc4F)n3)CC2)nc2ccc(C(=O)O)cc21 [Compound 222B, 2-{[4-(6-{[2-fluoro-4-(trifluoromethyl)benzyl]oxy}pyridin-2-yl)piperidin-1-yl]methyl}-1-methyl-1H-benzimidazole-6-carboxylic acid] | 130 nM | 72%
Cn1c(CN2CCC(c3cccc(OCc4ccc(F)cc4F)n3)CC2)nc2ccc(C(=O)O)cc21 [Compound 223B, 2-[(4-{6-[(2,4-difluorobenzyl)oxy]pyridin-2-yl}piperidin-1-yl)methyl]-1-methyl-1H-benzimidazole-6-carboxylic acid] | 170 nM | 69%
Cn1c(CN2CCC(c3cccc(OCc4c(F)cccc4F)n3)CC2)nc2ccc(C(=O)O)cc21 [Compound 224B, 2-[(4-{6-[(2,6-difluorobenzyl)oxy]pyridin-2-yl}piperidin-1-yl)methyl]-1-methyl-1H-benzimidazole-6-carboxylic acid] | 1200 nM | 53%
Cc1ccccc1COc1cccc(C2CCN(Cc3nc4ccc(C(=O)O)cc4n3C)CC2)n1 [Compound 230B, 1-methyl-2-[(4-{6-[(2-methylbenzyl)oxy]pyridin-2-yl}piperidin-1-yl)methyl]-1H-benzimidazole-6-carboxylic acid] | 1700 nM | 80%
Cn1c(CN2CCC(c3cccc(OCc4ccc(C#N)cc4)n3)CC2)nc2ccc(C(=O)O)cc21 [Compound 234B, 2-[(4-{6-[(4-cyanobenzyl)oxy]pyridin-2-yl}piperidin-1-yl)methyl]-1-methyl-1H-benzimidazole-6-carboxylic acid] | 290 nM | 64%
CC1(C)CC(Cn2c(CN3CCC(c4cccc(OCc5ccc(Cl)cc5F)n4)CC3)nc3ccc(C(=O)O)cc32)O1 (stereo not drawn) [Compound 235B, 2-[(4-{6-[(4-chloro-2-fluorobenzyl)oxy]pyridin-2-yl}piperidin-1-yl)methyl]-1-[(4,4-dimethyloxetan-2-yl)methyl]-1H-benzimidazole-6-carboxylic acid] | 390 nM | 72%
CC(C)n1cnnc1Cn1c(CN2CCC(c3cccc(OCc4ccc(Cl)cc4F)n3)CC2)nc2ccc(C(=O)O)cc21 [Compound 236B, 2-[(4-{6-[(4-chloro-2-fluorobenzyl)oxy]pyridin-2-yl}piperidin-1-yl)methyl]-1-{[4-(propan-2-yl)-4H-1,2,4-triazol-3-yl]methyl}-1H-benzimidazole-6-carboxylic acid] | 1300 nM | 79%
CCc1noc(Cn2c(CN3CCC(c4cccc(OCc5ccc(Cl)cc5F)n4)CC3)nc3ccc(C(=O)O)cc32)n1 [Compound 264B, 2-[(4-{6-[(4-chloro-2-fluorobenzyl)oxy]pyridin-2-yl}piperidin-1-yl)methyl]-1-[(3-ethyl-1,2,4-oxadiazol-5-yl)methyl]-1H-benzimidazole-6-carboxylic acid] | > 10000 nM | 85%
CC1(Cn2c(CN3CCC(c4cccc(OCc5ccc(Cl)cc5F)n4)CC3)nc3ccc(C(=O)O)cc32)CCO1 (stereo not drawn) [Compound 265B, 2-[(4-{6-[(4-chloro-2-fluorobenzyl)oxy]pyridin-2-yl}piperidin-1-yl)methyl]-1-[(2-methyloxetan-2-yl)methyl]-1H-benzimidazole-6-carboxylic acid] | > 15000 nM | 100%
C[C@H]1CN(c2cccc(OCc3ccc(C#N)cc3F)n2)CCN1Cc1nc2ccc(C(=O)O)cc2n1C[C@H]1CCOC1 [Compound 267B, 2-{[(2S)-4-{6-[(4-cyano-2-fluorobenzyl)oxy]pyridin-2-yl}-2-methylpiperazin-1-yl]methyl}-1-[(3R)-tetrahydrofuran-3-ylmethyl]-1H-benzimidazole-6-carboxylic acid] | > 19000 nM | 100%
O=C(O)c1ccc2nc(CN3CCC(c4cccc(OCc5ccc(Cl)cc5F)n4)CC3)n([C@@H]3CCOC3)c2c1 [Compound 268B, 2-[(4-{6-[(4-chloro-2-fluorobenzyl)oxy]pyridin-2-yl}piperidin-1-yl)methyl]-1-[(3R)-tetrahydrofuran-3-yl]-1H-benzimidazole-6-carboxylic acid] | > 20000 nM | 
CCn1cncc1Cn1c(CN2CCN(c3cccc(OCc4ccc(C#N)cc4F)n3)C[C@@H]2C)nc2ccc(C(=O)O)cc21 [Compound 269B, 2-{[(2S)-4-{6-[(4-cyano-2-fluorobenzyl)oxy]pyridin-2-yl}-2-methylpiperazin-1-yl]methyl}-1-[(1-ethyl-1H-imidazol-5-yl)methyl]-1H-benzimidazole-6-carboxylic acid] | > 20000 nM | 
O=C(O)c1ccc2nc(CN3CCC(c4cccc(OCc5ccc(Cl)cc5F)n4)CC3)n(Cc3cnoc3)c2c1 [Compound 270B, 2-[(4-{6-[(4-chloro-2-fluorobenzyl)oxy]pyridin-2-yl}piperidin-1-yl)methyl]-1-(1,2-oxazol-4-ylmethyl)-1H-benzimidazole-6-carboxylic acid] | > 20000 nM | 
O=C(O)c1ccc2nc(CN3CCC(c4cccc(OCc5ccc(Cl)cc5F)n4)CC3)n(Cc3ncon3)c2c1 [Compound 271B, 2-[(4-{6-[(4-chloro-2-fluorobenzyl)oxy]pyridin-2-yl}piperidin-1-yl)methyl]-1-(1,2,4-oxadiazol-3-ylmethyl)-1H-benzimidazole-6-carboxylic acid] | > 20000 nM | 
O=C(O)c1ccc2nc(CN3CCC(c4cccc(OCc5ccc(Cl)cc5F)n4)CC3)n([C@H]3CCOC3)c2c1 [Compound 272B, 2-[(4-{6-[(4-chloro-2-fluorobenzyl)oxy]pyridin-2-yl}piperidin-1-yl)methyl]-1-[(3S)-tetrahydrofuran-3-yl]-1H-benzimidazole-6-carboxylic acid] | > 20000 nM | 
CCn1cncc1Cn1c(CN2CCC(c3cccc(OCc4ccc(C#N)cc4F)n3)CC2)nc2ccc(C(=O)O)nc21 [Compound 273B, 2-[(4-{6-[(4-cyano-2-fluorobenzyl)oxy]pyridin-2-yl}piperidin-1-yl)methyl]-3-[(1-ethyl-1H-imidazol-5-yl)methyl]-3H-imidazo[4,5-b]pyridine-5-carboxylic acid] | > 20000 nM | 
Cn1cncc1Cn1c(CN2CCC(c3cccc(OCc4ccc(C#N)cc4F)n3)CC2)nc2ccc(C(=O)O)nc21 [Compound 274B, 2-[(4-{6-[(4-cyano-2-fluorobenzyl)oxy]pyridin-2-yl}piperidin-1-yl)methyl]-3-[(1-methyl-1H-imidazol-5-yl)methyl]-3H-imidazo[4,5-b]pyridine-5-carboxylic acid] | > 20000 nM | 
Cn1cnc(CCn2c(CN3CCC(c4cccc(OCc5ccc(Cl)cc5F)n4)CC3)nc3ccc(C(=O)O)cc32)c1 [Compound 276B, 2-[(4-{6-[(4-chloro-2-fluorobenzyl)oxy]pyridin-2-yl}piperidin-1-yl)methyl]-1-[2-(1-methyl-1H-imidazol-4-yl)ethyl]-1H-benzimidazole-6-carboxylic acid] | > 20000 nM | 
CC(F)(F)Cn1c(CN2CCC(c3cccc(OCc4ccc(Cl)cc4F)n3)CC2)nc2ccc(C(=O)O)cc21 [Compound 302B, 2-[(4-{6-[(4-chloro-2-fluorobenzyl)oxy]pyridin-2-yl}piperidin-1-yl)methyl]-1-(2,2-difluoropropyl)-1H-benzimidazole-6-carboxylic acid] | 130 nM | 80%
O=C(O)c1ccc2nc(CN3CCC(c4cccc(OCc5ccc(Cl)cc5F)n4)CC3)n(CCn3cccn3)c2c1 [Compound 303B, 2-[(4-{6-[(4-chloro-2-fluorobenzyl)oxy]pyridin-2-yl}piperidin-1-yl)methyl]-1-[2-(1H-pyrazol-1-yl)ethyl]-1H-benzimidazole-6-carboxylic acid] | 170 nM | 
Cc1noc(CCn2c(CN3CCC(c4cccc(OCc5ccc(Cl)cc5F)n4)CC3)nc3ccc(C(=O)O)cc32)n1 [Compound 304B, 2-[(4-{6-[(4-chloro-2-fluorobenzyl)oxy]pyridin-2-yl}piperidin-1-yl)methyl]-1-[2-(3-methyl-1,2,4-oxadiazol-5-yl)ethyl]-1H-benzimidazole-6-carboxylic acid] | 190 nM | 74%
O=C(O)c1ccc2nc(CN3CCC(c4cccc(OCc5ccc(Cl)cc5F)n4)CC3)n(CCN3CCCOC3=O)c2c1 [Compound 305B, 2-[(4-{6-[(4-chloro-2-fluorobenzyl)oxy]pyridin-2-yl}piperidin-1-yl)methyl]-1-[2-(2-oxo-1,3-oxazinan-3-yl)ethyl]-1H-benzimidazole-6-carboxylic acid] | 190 nM | 86%
Cn1cc(CCn2c(CN3CCC(c4cccc(OCc5ccc(Cl)cc5F)n4)CC3)nc3ccc(C(=O)O)cc32)cn1 [Compound 307B, 2-[(4-{6-[(4-chloro-2-fluorobenzyl)oxy]pyridin-2-yl}piperidin-1-yl)methyl]-1-[2-(1-methyl-1H-pyrazol-4-yl)ethyl]-1H-benzimidazole-6-carboxylic acid] | 210 nM | 77%
Cn1ncnc1Cn1c(CN2CCC(c3cccc(OCc4ccc(Cl)cc4F)n3)CC2)nc2ccc(C(=O)O)cc21 [Compound 308B, 2-[(4-{6-[(4-chloro-2-fluorobenzyl)oxy]pyridin-2-yl}piperidin-1-yl)methyl]-1-[(1-methyl-1H-1,2,4-triazol-5-yl)methyl]-1H-benzimidazole-6-carboxylic acid] | 290 nM | 74%
